Measured values: US20110217300A1, “Quinazolinone Compounds and Methods of Use Thereof” (priority 2007, published 2011)

Tests used:
Type in all cases: in vivo, mice
PACA2 tumor xenografts = test: PACA2 tumor xenograft efficacy study (Example 107); conditions: 3 mg/kg or 12.5 mg/kg intraperitoneally 3x weekly
Experimental: Six weeks old female athymic nude mice (NCR nu/nu) received from Charles River Laboratory, acclimated to the animal housing facility for one week before initiation of the study. Mice were housed in sterile cages of 4 each with autoclaved bedding, provided with autoclaved food and water ad libitum. Efficacy studies were performed in athymic mice bearing PACA2 tumor xenografts to determine the effect of compound on tumor growth. Tumor cells (1×10^7 PACA2 cells/animal) were inoculated subcutaneously on day 0. Tumor dimensions were measured three times weekly by a digital microcaliper, and tumor volumes were calculated as length×width^2/2. When tumors reached a volume of ˜300 mm^3, mice were randomized into groups and treated 3× weekly (Monday-Wednesday-Friday, followed by a 2-day dosing holiday) intraperitoneally. With either vehicle control or 3 mg/kg and 12.5 mg/kg compound formulated in DMA/PEG400/water (20:40:40). Results are expressed as mean tumor volume±SE. To assess differences in tumor size between groups, student's t test was performed and significance was assessed for p values <0.05. Tumor size was evaluated periodically during treatment at the indicated days post-inoculation. Results are represented as the mean of tumor volume in mm^3±SE of several tumors (n=10) in function of the treatment period. […] (See FIG. 1B).

SK-OV-3 xenograft = test: Xenograft model; conditions: SK-OV-3, Ovary; procedures and dosages of Examples 106-108
MIA-PaCa2 xenograft = test: Xenograft model; conditions: MIA-PaCa2, Pancreas; procedures and dosages of Examples 106-108
Experimental: Six-week old female athymic nude mice (NCR nu/nu; Charles River Laboratory, Wilmington, Mass.) were acclimated to the animal housing facility for at least 1 week before the study. Efficacy studies were performed in athymic mice bearing PACA2 tumor xenografts to determine the effect of compound on tumor growth. Tumor cells (1×10^7 PACA2 cells/animal) were inoculated subcutaneously on day 0. Tumor dimensions were measured by a digital microcaliper, and tumor volumes were calculated as length×width^2/2. […] Results are expressed as mean tumor volume±SE. To assess differences in tumor size between groups, a Mann-Whitney non-parametric t test was performed and significance was assessed for p values <0.05. Tumor size was evaluated periodically during treatment at the indicated days post-inoculation. […]
Six weeks old female athymic nude mice (NCR nu/nu) received from Charles River Laboratory, acclimated to the animal housing facility for one week before initiation of the study. […] Tumor dimensions were measured three times weekly by a digital microcaliper, and tumor volumes were calculated as length×width^2/2. […] Results are expressed as mean tumor volume±SE. To assess differences in tumor size between groups, student's t test was performed and significance was assessed for p values <0.05. Tumor size was evaluated periodically during treatment at the indicated days post-inoculation. […]

A375 xenograft = test: Xenograft model; conditions: A375, Skin; procedures and dosages of Examples 106-108

C#CC[C@H](c1nc2cc(Cl)ccc2c(=O)n1Nc1ccccc1)N(CCCN)C(=O)c1cccc(Cl)c1F [Compound 1, N-(3-Amino-propyl)-3-chloro-N—[(R)-1-(7-chloro-4-oxo-3-phenylamino-3,4-dihydro-quinazolin-2-yl)-but-3-ynyl]-2-fluoro-benzamide]
tolerability of doses (PACA2 tumor xenografts; PACA2 xenograft mice): well-tolerated
tumor growth compared to the vehicle control group (PACA2 tumor xenografts; tumors ~300 mm^3 at start, FIG. 1B): Significant reductions in tumor growth
Xenograft Outcome (approximate percent growth inhibition) (SK-OV-3 xenograft): ~50%
Xenograft Outcome (approximate percent growth inhibition) (MIA-PaCa2 xenograft): ~90%
Xenograft Outcome (approximate percent growth inhibition) (A375 xenograft): small
